Measurements taken from patent publication US10160762B2, “6-alkyl dihydropyrazolopyrimidinone compounds as PDE2 inhibitors” (Merck Sharp & Dohme Corp., priority 2015, dated 2018).

These molecules were tested against T1, human PDE2A1 (Homo sapiens, UniProt O00408) (assay: IMAP FP PDE assay, human PDE2A1). Conditions: Lab B; read-out: Human PDE2 Ki (nM) Lab B.
T1 construct: GST; purchased BPS Bioscience (San Diego, Calif.) 60020; host or cells: insect cells
Type: biochemical
How it was run: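 FP (IMAP) read after 60 min room-temperature reaction of insect-cell GST-human PDE2A1 with 50 nM FAM-cAMP plus 1000 nM cGMP (pH 7.2 Tris, Mg2+, DTT). Compounds titrated 3-fold over ten points. Apparent Ki derived assuming KM of 10,000 nM; enzyme at 20% substrate turnover.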

T1 sequence (O00408 1-920 isoform O00408-2): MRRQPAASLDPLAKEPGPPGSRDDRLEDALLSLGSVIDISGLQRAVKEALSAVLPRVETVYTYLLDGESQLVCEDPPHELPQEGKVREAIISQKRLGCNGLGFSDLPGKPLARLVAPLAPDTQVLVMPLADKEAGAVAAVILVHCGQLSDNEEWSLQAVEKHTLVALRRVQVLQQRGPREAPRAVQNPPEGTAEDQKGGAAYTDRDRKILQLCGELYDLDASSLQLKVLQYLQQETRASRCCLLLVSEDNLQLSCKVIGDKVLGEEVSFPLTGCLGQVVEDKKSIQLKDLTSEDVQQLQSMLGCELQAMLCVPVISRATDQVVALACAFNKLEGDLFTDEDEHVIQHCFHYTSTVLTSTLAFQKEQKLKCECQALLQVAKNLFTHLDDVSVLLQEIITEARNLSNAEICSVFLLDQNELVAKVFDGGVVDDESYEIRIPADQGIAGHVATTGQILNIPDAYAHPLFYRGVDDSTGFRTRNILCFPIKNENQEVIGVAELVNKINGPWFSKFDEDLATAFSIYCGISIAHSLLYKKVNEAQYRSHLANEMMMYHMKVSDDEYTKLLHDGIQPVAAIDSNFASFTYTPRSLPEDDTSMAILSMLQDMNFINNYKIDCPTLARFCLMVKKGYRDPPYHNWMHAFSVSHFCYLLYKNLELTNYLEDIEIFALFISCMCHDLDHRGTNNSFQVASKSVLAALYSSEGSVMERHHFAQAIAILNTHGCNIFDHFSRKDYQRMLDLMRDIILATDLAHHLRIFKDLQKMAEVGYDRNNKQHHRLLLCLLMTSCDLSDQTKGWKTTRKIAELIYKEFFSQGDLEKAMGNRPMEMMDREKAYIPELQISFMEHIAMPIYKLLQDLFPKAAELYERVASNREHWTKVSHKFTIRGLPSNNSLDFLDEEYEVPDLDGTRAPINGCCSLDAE

Row | Ki | SMILES
1 | 0.59 nM | Cc1nc2c(c(CO)nn2C(C)c2ccc(C3(C)CC3)cc2)c(=O)[nH]1 (single isomer, unassigned) [Example 144, (S)- or (R)-3-(Hydroxymethyl)-6-methyl-1-(1-(4-(1-methylcyclopropyl)phenyl)ethyl)-1H-pyrazolo[3,4-d]pyrimidin-4(5H)-one]
2 | > 2960 nM | Cc1nc2c(c(CO)nn2C(C)c2ccc(C(F)(F)F)nn2)c(=O)[nH]1 (single isomer, unassigned) [Example 145, (R)- or (S)-3-(Hydroxymethyl)-6-methyl-1-(1-(6-(trifluoromethyl)pyridazin-3-yl)ethyl)-1H-pyrazolo[3,4-d]pyrimidin-4(5H)-one]
3 | 58 nM | Cc1nc2c(c(CO)nn2C(C)c2ccc(C(F)(F)F)nn2)c(=O)[nH]1 (single isomer, unassigned) [Example 146, (S)- or (R)-3-(Hydroxymethyl)-6-methyl-1-(1-(6-(trifluoromethyl)pyridazin-3-yl)ethyl)-1H-pyrazolo[3,4-d]pyrimidin-4(5H)-one]
4 | > 2960 nM | Cc1nc2c(c(CO)nn2C(C)c2ncn(CC(F)(F)F)n2)c(=O)[nH]1 (single isomer, unassigned) [Example 147]
5 | 671 nM | Cc1nc2c(c(CO)nn2C(C)c2ncn(CC(F)(F)F)n2)c(=O)[nH]1 (single isomer, unassigned) [Example 148]
6 | > 2960 nM | Cc1nc2c(c(CO)nn2C(C)c2cnn(CC(F)(F)F)c2)c(=O)[nH]1 (single isomer, unassigned) [Example 149, (R)- or (S)-3-(Hydroxymethyl)-6-methyl-1-(1-(1-(2,2,2-trifluoroethyl)-1H-pyrazol-4-yl)ethyl)-1H-pyrazolo[3,4-d]pyrimidin-4(5H)-one]
7 | 158 nM | Cc1nc2c(c(CO)nn2C(C)c2cnn(CC(F)(F)F)c2)c(=O)[nH]1 (single isomer, unassigned) [Example 150, (S)- or (R)-3-(Hydroxymethyl)-6-methyl-1-(1-(1-(2,2,2-trifluoroethyl)-1H-pyrazol-4-yl)ethyl)-1H-pyrazolo[3,4-d]pyrimidin-4(5H)-one]
8 | 25 nM | Cc1nc2c(c(CO)nn2C(C)c2ccc(C(F)(F)F)cn2)c(=O)[nH]1 (single isomer, unassigned) [Example 151, (R)- or (S)-3-(Hydroxymethyl)-6-methyl-1-(1-(5-(trifluoromethyl)pyridin-2-yl)ethyl)-1H-pyrazolo[3,4-d]pyrimidin-4(5H)-one]
9 | 1180 nM | Cc1nc2c(c(CO)nn2C(C)c2ccc(C(F)(F)F)cn2)c(=O)[nH]1 (single isomer, unassigned) [Example 152, (S)- or (R)-3-(Hydroxymethyl)-6-methyl-1-(1-(5-(trifluoromethyl)pyridin-2-yl)ethyl)-1H-pyrazolo[3,4-d]pyrimidin-4(5H)-one]
10 | > 2960 nM | Cc1nc2c(c(CO)nn2C(C)c2ccc(Cl)s2)c(=O)[nH]1 (single isomer, unassigned) [Example 153, (R)- or (S)-1-(1-(5-Chlorothiophen-2-yl)ethyl)-3-(hydroxymethyl)-6-methyl-1H-pyrazolo[3,4-d]pyrimidin-4(5H)-one]
11 | 18 nM | Cc1nc2c(c(CO)nn2C(C)c2ccc(Cl)s2)c(=O)[nH]1 (single isomer, unassigned) [Example 154, (S)- or (R)-1-(1-(5-Chlorothiophen-2-yl)ethyl)-3-(hydroxymethyl)-6-methyl-1H-pyrazolo[3,4-d]pyrimidin-4(5H)-one]
12 | ~1630 nM | Cc1nc2c(c(CO)nn2C(C)c2ccc(C(F)(F)F)s2)c(=O)[nH]1 (single isomer, unassigned) [Example 155, (R)- or (S)-3-(Hydroxymethyl)-6-methyl-1-(1-(5-(trifluoromethyl)thiophen-2-yl)ethyl)-1H-pyrazolo[3,4-d]pyrimidin-4(5H)-one]
13 | 8.5 nM | Cc1nc2c(c(CO)nn2C(C)c2ccc(C(F)(F)F)s2)c(=O)[nH]1 (single isomer, unassigned) [Example 156, (S)- or (R)-3-(Hydroxymethyl)-6-methyl-1-(1-(5-(trifluoromethyl)thiophen-2-yl)ethyl)-1H-pyrazolo[3,4-d]pyrimidin-4(5H)-one]
14 | 224 nM | Cc1nc2c(c(C(F)F)nn2C(C)c2ccc(S(F)(F)(F)(F)F)cc2)c(=O)[nH]1 (single isomer, unassigned) [Example 161]
15 | 1.8 nM | Cc1nc2c(c(C(F)F)nn2C(C)c2ccc(S(F)(F)(F)(F)F)cc2)c(=O)[nH]1 (single isomer, unassigned) [Example 162]
16 | 256 nM | Cc1nc2c(c(C(F)F)nn2C(C)c2ccc(C(F)(F)F)c(F)c2)c(=O)[nH]1 (single isomer, unassigned) [Example 167, (R)- or (S)-3-(Difluoromethyl)-1-(1-(3-fluoro-4-(trifluoromethyl)phenyl)ethyl)-6-methyl-1H-pyrazolo[3,4-d]pyrimidin-4(5H)-one]
17 | 1.4 nM | Cc1nc2c(c(C(F)F)nn2C(C)c2ccc(C(F)(F)F)c(F)c2)c(=O)[nH]1 (single isomer, unassigned) [Example 168, (S)- or (R)-3-(Difluoromethyl)-1-(1-(3-fluoro-4-(trifluoromethyl)phenyl)ethyl)-6-methyl-1H-pyrazolo[3,4-d]pyrimidin-4(5H)-one]
18 | 18 nM | Cc1nc2c(c(C(F)F)nn2C(C)c2ccc(OC(F)(F)F)c(F)c2)c(=O)[nH]1 (single isomer, unassigned) [Example 169, (R)- or (S)-3-(Difluoromethyl)-1-(1-(3-fluoro-4-(trifluoromethoxy)phenyl)ethyl)-6-methyl-1H-pyrazolo [3,4-d]pyrimidin-4(5H)-one]
19 | 0.48 nM | Cc1nc2c(c(C(F)F)nn2C(C)c2ccc(OC(F)(F)F)c(F)c2)c(=O)[nH]1 (single isomer, unassigned) [Example 170, (S)- or (R)-3-(Difluoromethyl)-1-(1-(3-fluoro-4-(trifluoromethoxy)phenyl)ethyl)-6-methyl-1H-pyrazolo [3,4-d]pyrimidin-4(5H)-one]
20 | 43 nM | Cc1nc2c(c(C(F)F)nn2C(c2ccc(C(F)(F)F)cc2)C(C)C)c(=O)[nH]1 (single isomer, unassigned) [Example 171, (R)- or (S)-3-(Difluoromethyl)-6-methyl-1-(2-methyl-1-(4-(trifluoromethyl)phenyl)propyl)-1H-pyrazolo[3,4-d] pyrimidin-4(5H)-one]
21 | 0.31 nM | Cc1nc2c(c(C(F)F)nn2C(c2ccc(C(F)(F)F)cc2)C(C)C)c(=O)[nH]1 (single isomer, unassigned) [Example 172, (S)- or (R)-3-(Difluoromethyl)-6-methyl-1-(2-methyl-1-(4-(trifluoromethyl)phenyl)propyl)-1H-pyrazolo[3,4-d] pyrimidin-4(5H)-one]
22 | 4.6 nM | COCC(c1ccc(C(F)(F)F)cc1)n1nc(C(F)F)c2c(=O)[nH]c(C)nc21 (single isomer, unassigned) [Example 173, (R)- or (S)-3-(Difluoromethyl)-1-(2-methoxy-1-(4-(trifluoromethyl)phenyl)ethyl)-6-methyl-1H-pyrazolo[3,4-d]pyrimidin-4(5H)-one]
23 | 278 nM | COCC(c1ccc(C(F)(F)F)cc1)n1nc(C(F)F)c2c(=O)[nH]c(C)nc21 (single isomer, unassigned) [Example 174, (S)- or (R)-3-(Difluoromethyl)-1-(2-methoxy-1-(4-(trifluoromethyl)phenyl)ethyl)-6-methyl-1H-pyrazolo[3,4-d]pyrimidin-4(5H)-one]
24 | 61 nM | Cc1nc2c(c(C(F)F)nn2C(C)c2ccc(OC(F)(F)F)cc2)c(=O)[nH]1 (single isomer, unassigned) [Example 177, (R)- or (S)-3-(Difluoromethyl)-6-methyl-1-(1-(4-(trifluoromethoxy)phenyl)ethyl)-1H-pyrazolo[3,4-d]pyrimidin-4(5H)-one]
25 | 0.72 nM | Cc1nc2c(c(C(F)F)nn2C(C)c2ccc(OC(F)(F)F)cc2)c(=O)[nH]1 (single isomer, unassigned) [Example 178, (S)- or (R)-3-(Difluoromethyl)-6-methyl-1-(1-(4-(trifluoromethoxy)phenyl)ethyl)-1H-pyrazolo[3,4-d]pyrimidin-4(5H)-one]
26 | 28 nM | Cc1nc2c(c(C(F)F)nn2C(C)c2ccc(SC(F)(F)F)cc2)c(=O)[nH]1 (single isomer, unassigned) [Example 179, (R)- or (S)-3-(Difluoromethyl)-6-methyl-1-(1-(4-(trifluoromethylthio)phenyl)ethyl)-1H-pyrazolo[3,4-d] pyrimidin-4(5H)-one]
27 | 0.55 nM | Cc1nc2c(c(C(F)F)nn2C(C)c2ccc(SC(F)(F)F)cc2)c(=O)[nH]1 (single isomer, unassigned) [Example 180, (S)- or (R)-3-(Difluoromethyl)-6-methyl-1-(1-(4-(trifluoromethylthio)phenyl)ethyl)-1H-pyrazolo[3,4-d] pyrimidin-4(5H)-one]
28 | 82 nM | Cc1nc2c(c(C(F)F)nn2C(C)c2ccc(OC(F)F)cc2)c(=O)[nH]1 (single isomer, unassigned) [Example 181, (R)- or (S)-1-(1-(4-(Difluoromethoxy)phenyl)ethyl)-3-(difluoromethyl)-6-methyl-1H-pyrazolo[3,4-d]pyrimidin-4(5H)-one]
29 | 547 nM | Cc1nc2c(c(C(F)F)nn2C(C)c2ccc(C(F)(F)F)cc2Cl)c(=O)[nH]1 (single isomer, unassigned) [Example 183, (R)- or (S)-1-(1-(2-Chloro-4-(trifluoromethyl)phenyl)ethyl)-3-(difluoromethyl)-6-methyl-1H-pyrazolo[3,4-d]pyrimidin-4(5H)-one]
30 | 1.6 nM | Cc1nc2c(c(C(F)F)nn2C(C)c2ccc(C(F)(F)F)cc2Cl)c(=O)[nH]1 (single isomer, unassigned) [Example 184, (S)- or (R)-1-(1-(2-Chloro-4-(trifluoro-methyl)phenyl)-ethyl)-3-(difluoromethyl)-6-methyl-1H-pyrazolo[3,4-d]pyrimidin-4(5H)-one]
